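Step 1: Grow cells in 96-well plates. Step 2: Expose to compound for 48 hours at 5 concentrations. Step 3: Interpolate endpoints linearly; if unreached, use highest concentration. TGI is the concentration that stops growth completely.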
Assays:
Experiment in all cases: NCI tumour cell line growth inhibition, 48 h
M14 melanoma = system: M14 melanoma
HCT-116 colon = system: HCT-116 colon
RPMI-8226 leukemia = system: RPMI-8226 leukemia
SK-MEL-5 melanoma = system: SK-MEL-5 melanoma
U251 CNS = system: U251 CNS
MDA-N = system: MDA-N
HOP-62 NSCLC = system: HOP-62 NSCLC
OVCAR-8 ovarian = system: OVCAR-8 ovarian
NCI-H522 lung = system: NCI-H522 lung
SF-295 CNS = system: SF-295 CNS
IGROV1 ovarian = system: IGROV1 ovarian
SK-OV-3 ovarian = system: SK-OV-3 ovarian
OVCAR-4 ovarian = system: OVCAR-4 ovarian
MALME-3M melanoma = system: MALME-3M melanoma
UO-31 renal = system: UO-31 renal
MOLT-4 leukemia = system: MOLT-4 leukemia
TK-10 renal = system: TK-10 renal
LOX IMVI melanoma = system: LOX IMVI melanoma
OVCAR-5 ovarian = system: OVCAR-5 ovarian
ACHN renal = system: ACHN renal
A549 NSCLC = system: A549 NSCLC
HT29 colon = system: HT29 colon
SK-MEL-2 melanoma = system: SK-MEL-2 melanoma
CCRF-CEM leukemia = system: CCRF-CEM leukemia
COLO 205 colon = system: COLO 205 colon
UACC-257 melanoma = system: UACC-257 melanoma
EKVX NSCLC = system: EKVX NSCLC
K-562 leukemia = system: K-562 leukemia
HOP-92 NSCLC = system: HOP-92 NSCLC
BT-549 breast = system: BT-549 breast
NCI/ADR-RES ovarian = system: NCI/ADR-RES ovarian
NCI-H460 lung = system: NCI-H460 lung
T-47D breast = system: T-47D breast
MCF7 breast = system: MCF7 breast
UACC-62 melanoma = system: UACC-62 melanoma
786-0 renal = system: 786-0 renal
KM12 colon = system: KM12 colon
CAKI-1 renal = system: CAKI-1 renal
PC-3 prostate = system: PC-3 prostate
NCI-H226 lung = system: NCI-H226 lung
HCT-15 colon = system: HCT-15 colon
SNB-19 CNS = system: SNB-19 CNS
NCI-H23 lung = system: NCI-H23 lung
DU-145 prostate = system: DU-145 prostate
SN12C renal = system: SN12C renal
SF-268 CNS = system: SF-268 CNS
SR leukemia = system: SR leukemia
SK-MEL-28 melanoma = system: SK-MEL-28 melanoma
SW-620 colon = system: SW-620 colon
HCC-2998 colon = system: HCC-2998 colon
HS 578T breast = system: HS 578T breast
SF-539 CNS = system: SF-539 CNS
RXF 393 renal = system: RXF 393 renal
OVCAR-3 ovarian = system: OVCAR-3 ovarian
MDA-MB-231 breast = system: MDA-MB-231 breast
MDA-MB-435 = system: MDA-MB-435
SNB-75 CNS = system: SNB-75 CNS
HL-60(TB) leukemia = system: HL-60(TB) leukemia
A498 renal = system: A498 renal

## O=C(Nc1sccc1S(=O)(=O)c1ccc(Cl)cc1)c1ccc(Cl)cc1
M14 melanoma
  TGI: > 100 µM
HCT-116 colon
  TGI: > 100 µM
RPMI-8226 leukemia
  TGI: > 100 µM
SK-MEL-5 melanoma
  TGI: > 100 µM
U251 CNS
  TGI: > 100 µM
MDA-N
  TGI: > 100 µM
HOP-62 NSCLC
  TGI: > 100 µM
OVCAR-8 ovarian
  TGI: > 100 µM
NCI-H522 lung
  TGI: > 100 µM
SF-295 CNS
  TGI: > 100 µM
IGROV1 ovarian
  TGI: > 100 µM
SK-OV-3 ovarian
  TGI: > 100 µM
OVCAR-4 ovarian
  TGI: > 100 µM
MALME-3M melanoma
  TGI: > 100 µM
UO-31 renal
  TGI: > 100 µM
MOLT-4 leukemia
  TGI: > 100 µM
TK-10 renal
  TGI: > 100 µM
LOX IMVI melanoma
  TGI: > 100 µM
OVCAR-5 ovarian
  TGI: > 100 µM
ACHN renal
  TGI: > 100 µM
A549 NSCLC
  TGI: > 100 µM
HT29 colon
  TGI: > 100 µM
SK-MEL-2 melanoma
  TGI: > 100 µM
CCRF-CEM leukemia
  TGI: > 100 µM
COLO 205 colon
  TGI: > 100 µM
UACC-257 melanoma
  TGI: > 100 µM
EKVX NSCLC
  TGI: > 100 µM
K-562 leukemia
  TGI: > 100 µM
HOP-92 NSCLC
  TGI: > 100 µM
BT-549 breast
  TGI: > 100 µM
NCI/ADR-RES ovarian
  TGI: > 100 µM
NCI-H460 lung
  TGI: > 100 µM
T-47D breast
  TGI: > 100 µM
MCF7 breast
  TGI: > 100 µM
UACC-62 melanoma
  TGI: > 100 µM
786-0 renal
  TGI: > 100 µM
KM12 colon
  TGI: > 100 µM
CAKI-1 renal
  TGI: > 100 µM
PC-3 prostate
  TGI: 90.4 µM
NCI-H226 lung
  TGI: > 100 µM
HCT-15 colon
  TGI: > 100 µM
SNB-19 CNS
  TGI: > 100 µM
NCI-H23 lung
  TGI: > 100 µM
DU-145 prostate
  TGI: > 100 µM
SN12C renal
  TGI: > 100 µM
SF-268 CNS
  TGI: > 100 µM
SR leukemia
  TGI: > 100 µM
SK-MEL-28 melanoma
  TGI: > 100 µM
SW-620 colon
  TGI: > 100 µM
HCC-2998 colon
  TGI: > 100 µM
HS 578T breast
  TGI: > 100 µM
SF-539 CNS
  TGI: > 100 µM
RXF 393 renal
  TGI: > 100 µM
OVCAR-3 ovarian
  TGI: > 100 µM
MDA-MB-231 breast
  TGI: > 100 µM
MDA-MB-435
  TGI: > 100 µM
SNB-75 CNS
  TGI: > 100 µM
HL-60(TB) leukemia
  TGI: > 100 µM
A498 renal
  TGI: > 100 µM
